Reference: patent US9713606B2, “Methods for treating pulmonary emphysema using substituted 2-Aza-bicyclo[2.2.1]heptane-3-carboxylic acid (benzyl-cyano-methyl)-amides inhibitors of cathepsin C” (Boehringer Ingelheim International GmbH, priority 2013, dated 2017)
Read-outs that look alike come from different tables or passages of the source.

Key:
[1] = Determination of metabolic stability with human liver microsomes; type: in vitro ADME; settings: pooled human liver microsomes, 1 mg/ml protein, 1 μM test compound, 37° C.; for half-life at 1 μM: pH 7.6, read-out: In vitro stability in human liver microsome incubations t½
Text: Determination of Metabolic Stability with Human Liver Microsomes

[2] = molecular target: recombinant human DPPI (Cathepsin C) (Homo sapiens (Human), UniProt P53634); assay: Inhibition of human DPPI (Cathepsin C); type: biochemical; settings: substrate Gly-Arg-AMC
Protocol: Inhibition of Human DPPI (Cathepsin C)
Bovine serum albumin (BSA; Prod. No. A3059) and Dithiothreitol (DTT; Prod. No D0632) were from Sigma. […] The DPP1 inhibitor Gly-Phe-DMK was purchased from MP Biomedicals (Prod.-No. 03DK00625). The recombinant human DPPI was purchased from Prozymex. All other materials were of highest grade commercially available.
The following buffers were used: MES buffer: 25 mM MES, 50 mM NaCl, 5 mM DTT, adjusted to pH 6.0, containing 0.1% BSA; TAGZyme Buffer: 20 mM NaH2PO4, 150 mM NaCl adjusted to pH 6.0 with HCl
Then, 5 μL of substrate in MES buffer (final concentration 50 μM) were added. The microtiter plates were then incubated at room temperature for […] Then, the reaction was stopped by adding 10 μL of Gly-Phe-DMK in MES-buffer (final concentration 1 μM).
The analysis of the data was performed by calculating the percentage of fluorescence in the presence of test compound in comparison to the fluorescence of the vehicle control after subtracting the background fluorescence using the following formula: (RFU(sample)−RFU(background))*100/(RFU(control)−RFU(background))
Data from these calculations were used to generate IC50 values for inhibition of DPPI, respectively.

[3] = test system: neutrophil elastase activity in U937 cells; assay: Determination of neutrophil elastase activity in U937 cytosolic lysate preparation after incubation with test compound; type: cell-based, human
Protocol: Determination of Neutrophil Elastase Activity in U937 Cytosolic Lysate Preparation after Incubation with Test Compound Materials:
Optiplate 384F were purchased from PerkinElmer (Prod. No. #6007270). 24 well Nunclon cell culture plates (No. 142475) and 96 well plates (No. 267245) were from Nunc. Dimethylsulfoxid (DMSO) was from Sigma (Prod. No. D8418). Nonidet-P40 (NP40) was from USBiological (Prod. No. N3500)
Substrate, specific for Neutrophil elastase, was from Bachem (MeOSuc-Ala-Ala-Pro-Val-AMC; Prod. No. I-1270).
Human neutrophil elastase was from Calbiochem (Prod. No. 324681)
Tris-buffer (100 mM Tris; 1M NaCL; pH 7.5)
Tris-buffer+HSA 0.1%; Human Serum Albumin from Calbiochem (Cat#. 126658)
Serine-protease buffer (20 mM Tris; 100 mM NaCL; pH 7.5)+0.1% HSA
Serine protease lysis buffer: 20 mM Tris-HCL; 100 mM NaCl pH 7.5; +0.2% Nonidet-P40;
PBS: phosphate buffered saline, without Ca and Mg, from Gibco
U937 from ECACC (Cat. No. 85011440) cultured in suspension at 37° C. and 5% CO2.
Cell density: 0.2-1 Mio. Cells/ml.
Medium: RPMI1640 GlutaMAX (No. 61870) with 10% FCS from Gibco
Cell Seeding and Treatment:
Compounds in 100% DMSO were diluted in Medium (-FCS) with 10% DMSO and further diluted according to the experiment planned.
20 μl of the compound solution was transferred in the respective wells of the 24 well plate and diluted with 2 ml cell suspension/well containing 1'10^5 cells/ml (final concentration of DMSO=0.1%). Compound dilution factor=100 […]
Frozen lysates were thawn at 37° C. for 10 minutes and stored on ice. Protein content was determined with Bradford protein assay. […]
The increase in fluorescence (Ex360 nm/Em 460 nm) is determined over 30 minutes with a Molecular Device Spectramax M5 Fluorescence Reader. […] The amount of neutrophil elastase (ng/ml) is calculated using the standard curve and the Spectramax software. […] Percent inhibition in the compound-treated lysate samples is calculated relative to the DMSO-treated control-sample (100−(compound-sample*100)/control-sample)
[…] is calculated using Graphpad Prism; nonlinear fitting (log(inhibitor) vs. response—Variable slope).

[4] = molecular target: recombinant human Cathepsin K (Homo sapiens (Human), UniProt P43235); assay: Inhibition of human Cathepsin K; type: biochemical; settings: substrate Z-Gly-Pro-Arg-AMC
Text: Inhibition of Human Cathepsin K
Materials: Microtiterplates (Optiplate-384 F were purchased from PerkinElmer (Prod. No. 6007270). The substrate Z-Gly-Pro-Arg-AMC was from Biomol (Prod.-No. P-142). L-Cysteine (Prod. No. 168149) was from Sigma. Sodium acetate was from Merck (Prod.-No. 6268.0250), EDTA was from Fluka (Prod.-No. 03680). The inhibitor E-64 was purchased from Sigma (Prod.-No. E3132). The recombinant human Cathepsin K proenzyme was purchased from Biomol (Prod. No. SE-367). All other materials were of highest grade commercially available. […]
5 μL test compound (final concentration 0.1 nM to 100 μM) in aqua bidest (containing 4% DMSO, final DMSO concentration 1%) were mixed with 10 uL of Cathepsin K in assay buffer (final concentration 2 ng/μL) and incubated for 10 min. […] The fluorescence in the wells was determined using a Molecular Devices SpectraMax M5 Fluorescence Reader (Ex 360 nm, Em 460 nm).
Each assay microtiter plate contains wells with vehicle controls (1% DMSO in bidest) as reference for non-inhibited enzyme activity (100% Ctl; high values) and wells with inhibitor (E64 in bidest+1% DMSO, final concentration 1 μM) as controls for background fluorescence (0% Ctl; low values). […]

[5] = Homo sapiens, U-937, read-out: Reduction of NE-activity in U937 cells IC50

Sequence of recombinant human DPPI (Cathepsin C) (P53634 231-394): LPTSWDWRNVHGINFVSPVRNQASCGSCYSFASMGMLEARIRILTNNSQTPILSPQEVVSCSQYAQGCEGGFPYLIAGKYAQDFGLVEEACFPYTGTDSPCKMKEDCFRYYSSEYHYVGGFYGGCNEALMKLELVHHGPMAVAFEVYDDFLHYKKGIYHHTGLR
Sequence of recombinant human DPPI (Cathepsin C) (P53634 395-463): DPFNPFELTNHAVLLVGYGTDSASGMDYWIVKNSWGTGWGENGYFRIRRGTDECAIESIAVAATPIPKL
Sequence of recombinant human DPPI (Cathepsin C) (P53634 25-134): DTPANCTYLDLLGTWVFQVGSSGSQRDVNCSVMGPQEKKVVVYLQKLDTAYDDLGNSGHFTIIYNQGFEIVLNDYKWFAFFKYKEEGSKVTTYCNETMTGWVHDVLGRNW
Sequence of recombinant human Cathepsin K (P43235 115-329): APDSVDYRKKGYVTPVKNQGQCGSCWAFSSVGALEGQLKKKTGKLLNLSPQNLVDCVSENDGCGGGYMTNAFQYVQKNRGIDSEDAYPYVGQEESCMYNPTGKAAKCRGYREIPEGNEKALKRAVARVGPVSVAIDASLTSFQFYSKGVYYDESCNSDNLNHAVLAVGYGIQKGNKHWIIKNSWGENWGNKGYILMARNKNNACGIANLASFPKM

## N#CC(Cc1ccc(-c2cnn(-c3ccccc3)c2)cc1F)NC(=O)[C@H]1N[C@@H]2CC[C@H]1C2 (stereo partly drawn) [Example 78]
[1]
  In vitro stability in human liver microsome incubations t½: 2.17 h

## CC(C)c1cc(-c2ccc(C[C@@H](C#N)NC(=O)[C@H]3N[C@@H]4CC[C@H]3C4)c(F)c2)ccc1[S+](C)[O-] (stereo partly drawn) [Example 251]
[2]
  IC50: 11.5 nM

## CN1CCC(N2C(=O)Cc3ccc(-c4ccc(C[C@@H](C#N)NC(=O)[C@H]5N[C@@H]6CC[C@H]5C6)c(F)c4)cc32)CC1 [Example 346]
[1]
  In vitro stability in human liver microsome incubations t½: >2.17 h

## N#C[C@H](Cc1ccc(N2CCCN3CCCC3C2)cc1F)NC(=O)[C@H]1N[C@@H]2CC[C@H]1C2 (stereo partly drawn) [Example 271]
[1]
  In vitro stability in human liver microsome incubations t½: 2.17 h

## CS(=O)(=O)c1ccc(-c2ccc(C[C@@H](C#N)NC(=O)[C@H]3N[C@@H]4CC[C@H]3C4)c(F)c2)cc1OCC(F)F [Example 252]
[1]
  In vitro stability in human liver microsome incubations t½: 2.17 h

## CS(=O)(=O)c1cc(OCC(F)(F)F)cc(-c2ccc(C[C@@H](C#N)NC(=O)[C@H]3N[C@@H]4CC[C@H]3C4)c(F)c2)c1 [Example 276]
[1]
  In vitro stability in human liver microsome incubations t½: 2.17 h

## CN1CCCN(S(=O)(=O)c2ccc(-c3ccc(C[C@@H](C#N)NC(=O)[C@H]4N[C@@H]5CC[C@H]4C5)c(F)c3)cc2)CC1 [Example 340]
[3]; [5]
  IC50: 0.8 nM

## N#C[C@H](Cc1ccc(-c2ccc(S(=O)(=O)N3CCOCC3)cc2)cc1F)NC(=O)[C@H]1N[C@@H]2CC[C@H]1C2 [Example 217]
[3]; read-out: Reduction of NE-activity in U937 cells IC50
  IC50: 7.5 nM

## CN1C(=O)Cc2ccc(-c3ccc(CC(C#N)NC(=O)[C@H]4N[C@@H]5CC[C@H]4C5)c(F)c3)cc21 (stereo partly drawn) [Example 15]
[1]
  In vitro stability in human liver microsome incubations t½: 2.17 h

## CN1C(=O)Cc2ccc(-c3cc(F)c(C[C@@H](C#N)NC(=O)[C@H]4N[C@@H]5CC[C@H]4C5)cc3F)cc21 [Example 31]
[1]
  half-life at 1 μM: 1.5 h

## N#C[C@H](Cc1ccc(N2CCN(CC3CCOC3)CC2)cc1F)NC(=O)[C@H]1N[C@@H]2CC[C@H]1C2 (stereo partly drawn) [Example 154]
[2]
  IC50: 13.5 nM
[1]
  half-life at 1 μM: > 2.17 h
[3]; [5]
  IC50: 4.6 nM
[4]
  IC50: 4600 nM

## N#C[C@H](Cc1ccc(N2CC3CCN(C4CCOC4)C3C2)cc1F)NC(=O)[C@H]1N[C@@H]2CC[C@H]1C2 (stereo partly drawn) [Example 348]
[1]
  In vitro stability in human liver microsome incubations t½: 2.17 h
